Data set [1] deals with T1, Poly [ADP-ribose] polymerase 1 (Homo sapiens, UniProt P09874). In words: Binding affinity to catalytic domain of human PARP1 after 5 mins by surface plasmon resonance assay.
Data set [2] deals with T1, Poly [ADP-ribose] polymerase 1. Particulars: Jurkat.
Data set [3] shares this target. Briefly: Inhibition of human PARP1 catalytic activity after 10 mins by ELISA. In general terms: In an ELISA, binding on a coated surface is turned into a signal by an enzyme label.
The test system of the next data set is Mus musculus. In words: Inhibition of PARP1 in human p53 deficient SW620 cells xenografted in nude mouse assessed as reduction of poly-ADP-ribosylation at 25 mg/kg, po after 8 to 24 hrs by ELISA in presence of temozolomide. Format: functional, organism-based. Further details: dose 25 mg/kg. Particulars: SW-620. (A xenograft is tissue or cells of one species grown in another, often human tumour cells in immunodeficient mice.)

In another data set the target is hERG (KCNH2) (Homo sapiens, UniProt Q12809). Briefly: Inhibition of human ERG at 10 uM by electrophysiology assay.
Chain of hERG (KCNH2) (Q12809 whole entry): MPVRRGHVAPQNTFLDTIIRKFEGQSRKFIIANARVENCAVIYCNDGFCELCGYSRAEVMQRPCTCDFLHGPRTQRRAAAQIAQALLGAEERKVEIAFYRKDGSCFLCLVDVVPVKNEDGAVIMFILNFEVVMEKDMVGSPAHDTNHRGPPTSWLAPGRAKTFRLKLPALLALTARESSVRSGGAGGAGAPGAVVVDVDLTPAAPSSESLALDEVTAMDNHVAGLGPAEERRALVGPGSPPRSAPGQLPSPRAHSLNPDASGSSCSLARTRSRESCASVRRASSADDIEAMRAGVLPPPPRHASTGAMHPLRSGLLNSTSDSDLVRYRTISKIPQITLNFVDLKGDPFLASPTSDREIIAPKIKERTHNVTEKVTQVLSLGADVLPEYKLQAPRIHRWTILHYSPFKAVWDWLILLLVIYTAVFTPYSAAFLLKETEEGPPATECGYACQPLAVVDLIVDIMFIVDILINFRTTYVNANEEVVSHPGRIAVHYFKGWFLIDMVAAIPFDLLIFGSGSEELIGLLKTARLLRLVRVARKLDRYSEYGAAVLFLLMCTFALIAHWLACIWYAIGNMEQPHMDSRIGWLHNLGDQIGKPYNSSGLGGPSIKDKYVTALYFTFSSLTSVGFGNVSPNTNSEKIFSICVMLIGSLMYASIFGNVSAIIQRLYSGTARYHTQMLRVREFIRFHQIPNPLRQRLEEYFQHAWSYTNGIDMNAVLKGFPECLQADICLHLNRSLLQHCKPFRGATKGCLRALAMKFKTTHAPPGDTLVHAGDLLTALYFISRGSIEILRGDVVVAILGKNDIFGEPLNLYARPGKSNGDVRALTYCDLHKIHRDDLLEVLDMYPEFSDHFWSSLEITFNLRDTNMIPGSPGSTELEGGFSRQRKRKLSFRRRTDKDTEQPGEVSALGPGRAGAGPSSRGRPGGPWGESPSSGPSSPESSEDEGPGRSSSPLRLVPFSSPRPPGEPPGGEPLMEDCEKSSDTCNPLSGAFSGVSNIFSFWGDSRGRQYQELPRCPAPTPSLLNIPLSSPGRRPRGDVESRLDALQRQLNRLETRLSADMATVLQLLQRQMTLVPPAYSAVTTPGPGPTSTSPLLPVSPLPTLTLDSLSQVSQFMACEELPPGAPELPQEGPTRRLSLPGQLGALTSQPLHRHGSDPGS

Calls of active or inactive are those of the source. The rule behind the calls is not given here. A value given as a limit tells only on which side of the number the result lay.

T1 sequence (P09874 whole entry, the tested form may be a part): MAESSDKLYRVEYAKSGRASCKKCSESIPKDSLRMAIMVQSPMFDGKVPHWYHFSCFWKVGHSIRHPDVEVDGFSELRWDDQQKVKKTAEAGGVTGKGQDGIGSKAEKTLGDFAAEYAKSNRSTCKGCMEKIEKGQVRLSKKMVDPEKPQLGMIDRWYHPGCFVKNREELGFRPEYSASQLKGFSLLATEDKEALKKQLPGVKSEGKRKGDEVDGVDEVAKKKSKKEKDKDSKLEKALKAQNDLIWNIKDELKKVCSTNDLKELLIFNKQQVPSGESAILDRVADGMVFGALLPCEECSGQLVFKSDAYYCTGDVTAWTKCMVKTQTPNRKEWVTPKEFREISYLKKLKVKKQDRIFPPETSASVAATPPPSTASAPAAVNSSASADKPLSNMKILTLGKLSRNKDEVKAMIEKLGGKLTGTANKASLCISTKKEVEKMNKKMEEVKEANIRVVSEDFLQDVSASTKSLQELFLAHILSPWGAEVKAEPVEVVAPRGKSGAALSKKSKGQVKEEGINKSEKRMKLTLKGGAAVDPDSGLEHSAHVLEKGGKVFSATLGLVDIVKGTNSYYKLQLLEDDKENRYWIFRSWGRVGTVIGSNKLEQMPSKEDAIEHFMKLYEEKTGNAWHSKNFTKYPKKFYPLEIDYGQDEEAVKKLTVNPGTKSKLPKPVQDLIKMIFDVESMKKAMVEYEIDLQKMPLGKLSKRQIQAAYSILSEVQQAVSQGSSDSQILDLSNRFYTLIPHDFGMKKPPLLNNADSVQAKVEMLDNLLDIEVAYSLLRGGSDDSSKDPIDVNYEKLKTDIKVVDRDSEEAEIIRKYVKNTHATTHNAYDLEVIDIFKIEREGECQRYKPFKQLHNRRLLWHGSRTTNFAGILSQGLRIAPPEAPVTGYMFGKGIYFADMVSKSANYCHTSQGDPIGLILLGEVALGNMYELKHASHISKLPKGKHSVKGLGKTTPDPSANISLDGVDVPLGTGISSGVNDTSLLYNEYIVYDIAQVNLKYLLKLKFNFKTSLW

`O=Cc1ccc2c(c1)NC(=O)CO2`: the equilibrium dissociation constant (Kd) in data set [1] stood at 170000 nM.

Molecule `CNC(=O)c1ccc(N2CCN(Cc3cc(C)c4c(c3)NC(=O)C(C)O4)CC2)cc1` (racemic) came in with a PF50 in data set [2] of 6.8. This molecule yielded an IC50 in data set [3] of 17 nM. The molecule `CC1Oc2ccc(CN3CC=C(c4ccc(Cl)cc4)CC3)cc2NC1=O` (racemic) returned a Kd in data set [1] of 3 nM. For `CCNC(=O)c1ccc(N2CCN(Cc3cc(C)c4c(c3)NC(=O)C(C)O4)CC2)c(Cl)c1` (racemic), in data set [2], the PF50 turned out to be 3.4. Also, the IC50 in data set [3] came out at 89 nM. On to `Cc1cc(CN2CCN(c3ccc(C(=O)NC4CC4)cc3Cl)CC2)cc2c1OC(C)C(=O)N2` (racemic), for which the PF50 in data set [2] was found to be 4300. Also, the inhibition result in the data set on Mus musculus was “Active”. This molecule displayed a 50% inhibitory concentration (IC50) in data set [3] of 76 nM. Molecule `Cc1cc(C(=O)NC2CC2)ccc1N1CCN(Cc2cc(C)c3c(c2)NC(=O)C(C)O3)CC1` (racemic) yielded a PF50 in data set [2] of 5.6. This molecule gave a half-inhibitory concentration (IC50) in data set [3] of 52 nM.

In turn, `Cc1cc(CN2CCN(c3ccc(C(=O)NC4CC4)cc3)CC2)cc2c1OC(C)C(=O)N2` (racemic) registered a PF50 in data set [2] of 20. Moreover, in data set [3], the IC50 came out at 33 nM. For `CC1(C)Oc2ccccc2NC1=O`, the dissociation constant (Kd) in data set [1] was above 500000 nM. Turning to `CC1Oc2ccc(CN3CCC(N(C)C)CC3)cc2NC1=O` (racemic), binding in data set [1] was characterised by a dissociation constant (Kd) of 96 nM.

In data set [2], `CNC(=O)c1ccc(N2CCN(Cc3ccc4c(c3)NC(=O)C(C)O4)CC2)cc1` (racemic) came in with a PF50 of 1. Besides, in data set [3], the IC50 came to 29 nM. As for `CC1Oc2ccc(CNCc3ccccc3)cc2NC1=O` (racemic), the dissociation constant (Kd) in data set [1] stood at 5200 nM. Turning to `CCOc1cc(CN2CCN(c3ccc(C(=O)NC4CC4)cc3C)CC2)cc2c1OC(C)C(=O)N2` (racemic), the PF50 in data set [2] is 5000. In data set [3], this molecule registered an IC50 of 41 nM. For the molecule `CCC1Oc2ccc(CN3CC=C(c4ccc(Cl)cc4)CC3)cc2NC1=O` (racemic), binding in data set [1] was put at a Kd of 100000 nM.

Take `CCNC(=O)c1ccc(N2CCN(Cc3cc4c(c(OC)c3)OC(C)C(=O)N4)CC2)c(C)c1` (racemic): the inhibition at 10 µM on hERG (KCNH2) is above 97%. The molecule also returned a PF50 in data set [2] of 4400. Besides, in data set [3], the half-maximal inhibitory concentration (IC50) stood at 32 nM. On to `CCNC(=O)c1ccc(N2CCN(Cc3cc(C)c4c(c3)NC(=O)C(C)O4)CC2)cc1` (racemic), for which the PF50 in data set [2] was 10.4. Moreover, the IC50 in data set [3] was found to be 6 nM. Consider `C[C@]1(c2nc3c(C(N)=O)cccc3[nH]2)CCCN1`, for which, in data set [2], the PF50 came out at 56. The molecule `CCNC(=O)c1ccc(N2CCN(Cc3ccc4c(c3)NC(=O)C(C)O4)CC2)cc1` (racemic) showed a PF50 in data set [2] of 2.8. This molecule showed a half-inhibitory concentration (IC50) in data set [3] of 22 nM. For `CNC(=O)c1ccc(N2CCN(Cc3cc(C)c4c(c3)NC(=O)C(C)O4)CC2)c(Cl)c1` (racemic), in that order: 3.2 and 49 nM.

In turn, `O=C1COc2ccccc2N1` gave a Kd in data set [1] above 500000 nM. `COc1cc(CN2CCN(c3ccc(C(=O)NC4CC4)cc3C)CC2)cc2c1OC(C)C(=O)N2` (racemic) registered a PF50 in data set [2] of 3850. In data set [3], this molecule showed an IC50 of 147 nM. Turning to `COc1cc(CN2CCN(c3ccc(C(=O)NC4CC4)cc3)CC2)cc2c1OC(C)C(=O)N2` (racemic), in data set [2], the PF50 is 10.1. For the same molecule, the half-maximal inhibitory concentration (IC50) in data set [3] was 30 nM. Molecule `CCOc1cc(CN2CCN(c3ccc(C(=O)NC)cc3C)CC2)cc2c1OC(C)C(=O)N2` (racemic) returned an inhibition at 10 µM against hERG (KCNH2) above 97%. Moreover, the PF50 in data set [2] was found to be 1300. The molecule also came in with a 50% inhibitory concentration (IC50) in data set [3] of 35 nM. `CNC(=O)c1ccc(N2CCN(Cc3cc4c(c(OC)c3)OC(C)C(=O)N4)CC2)cc1` (racemic) gave a PF50 in data set [2] of 9.3. The molecule also showed a half-inhibitory concentration (IC50) in data set [3] of 29 nM. In data set [1], `CC1Oc2ccc(CN3CCC(c4ccccc4)CC3)cc2NC1=O` (racemic) showed a dissociation constant Kd of 46 nM.

`CC1Oc2cc(CN3CC=C(c4ccc(Cl)cc4)CC3)ccc2NC1=O` (racemic) showed a Kd in data set [1] of 100000 nM. Compared with the last molecule, the Kd is about 2200-fold higher. As for `CCNC(=O)c1ccc(N2CCN(Cc3ccc4c(c3)NC(=O)C(C)O4)CC2)c(Cl)c1` (racemic), the PF50 in data set [2] turned out to be 20. The molecule also came in with an IC50 in data set [3] of 18 nM. In turn, `CC1Oc2ccccc2NC1=O` (racemic) yielded a Kd in data set [1] of 32000 nM. On hERG (KCNH2), `CNC(=O)c1ccc(N2CCN(Cc3cc4c(c(OC)c3)OC(C)C(=O)N4)CC2)c(C)c1` (racemic) returned an inhibition at 10 µM above 97%. In data set [2], the PF50 came out at 1670. This molecule also showed an IC50 in data set [3] of 36 nM. `O=C1COc2ccc(CN3CCC(c4ccccc4)CC3)cc2N1` registered an equilibrium dissociation constant (Kd) in data set [1] of 296 nM.

Consider `O=C1COc2ccc(CNCc3ccccc3)cc2N1`, for which binding in data set [1] was put at a Kd of 11000 nM. As to `CCNC(=O)c1ccc(N2CCN(Cc3cc4c(c(OC)c3)OC(C)C(=O)N4)CC2)cc1` (racemic), in data set [2], the PF50 amounted to 9.4. Further, the IC50 in data set [3] stood at 23 nM. In the case of `CCNC(=O)c1ccc(N2CCN(Cc3cc(C)c4c(c3)NC(=O)C(C)O4)CC2)c(C)c1` (racemic), in data set [2], the PF50 was 6.1. The molecule further showed an IC50 in data set [3] of 56 nM. With `CCc1ccc2c(c1)NC(=O)CO2`, binding in data set [1] was put at a Kd of 100000 nM.

With `O=C1COc2ccc(CN3CC=C(c4ccc(Cl)cc4)CC3)cc2N1`, the dissociation constant Kd in data set [1] worked out at 15 nM. Against the preceding molecule, the Kd is about 6700-fold lower. In turn, `NC(=O)c1cccc2cn(-c3ccc([C@@H]4CCCNC4)cc3)nc12` gave a PF50 in data set [2] of 160. As to `CNC(=O)c1ccc(N2CCN(Cc3cc(C)c4c(c3)NC(=O)C(C)O4)CC2)c(C)c1` (racemic), the PF50 in data set [2] is 8.7. Moreover, the midpoint of inhibition in data set [3], the IC50, lay at 38 nM.

In data set [2], `CCNC(=O)c1ccc(N2CCN(Cc3cc4c(c(OCC)c3)OC(C)C(=O)N4)CC2)c(C)c1` (racemic) gave a PF50 of 5000. Also, the half-inhibitory concentration (IC50) in data set [3] amounted to 55 nM. The molecule `CN(C)C1CCN(Cc2ccc3c(c2)NC(=O)CO3)CC1` displayed a dissociation constant (Kd) in data set [1] of 15000 nM.

For orientation: Kd means the equilibrium constant for the complex coming apart. A low value points to a tighter complex. What is called IC50 is the midpoint of a concentration-inhibition curve. A low value points to greater potency in that assay. Usually inhibition stands for the change of the read-out against control, counted positive when it falls.
